In patent publication US12655125B2 (SIRONAX LTD., priority 2020, dated 2026) one finds EC50 data, which are given here for 18 molecules.

One may read the EC50 as the concentration that produces a half-maximal response.

In the assay the test system is HT-29 cells. Put plainly: HT29 Cells 0FBS Assay In Vitro (TNF-α/SMAC mimetic/zVAD-FMK induced necroptosis, CellTiter-Glo cell viability). The settings on record: Homo sapiens, HT-29 cells, FBS free medium, TNF-α (10 ng/ml), SMAC mimetic (6 uM), zVAD-FMK (10 μM), 20 hours, geometric mean EC50. The class given is cell-based. The gist of the method: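 HT-29 cells (5,000/well, seeded overnight) in serum-free McCoy's 5A were stimulated with TNF-α 10 ng/ml, SMAC mimetic 6 μM and zVAD-FMK 10 μM to induce necroptosis. Compound added as 10-point 3-fold series for 20 h at 37° C. CellTiter-Glo luminescence gives viability; EC50 is geometric mean of duplicate dose-responses.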
A general note: ATP-based viability assays read luminescence as a measure of living cells.

The mark [1] stands for this setting: read-out: Cell activity (EC50) of Compounds 117-281.
The mark [2] stands for this setting: read-out: Cell activity (EC50) of Compounds 1-116.

Each structure is given as a SMILES string. Like-named read-outs stand apart in the source and are kept apart here.

`CONS(=O)(=O)c1c(C)nn(-c2cc(OC3CN(C(=O)N4N=CC[C@H]4c4cc(F)cc(F)c4)C3)c(F)cn2)c1C` [compound 248, (S)-1-(4-((1-(5-(3,5-difluorophenyl)-4,5-dihydro-1H-pyrazole-1-carbonyl)azetidin-3-yl)oxy)-5-fluoropyridin-2-yl)-N-methoxy-3,5-dimethyl-1H-pyrazole-4-sulfonamide]: the EC50 under setting [1] fell in the range of 0.1 to 100 nM.

As to `Cn1ncc(C(=O)N2CCOCC2)c1-c1cc(OC2CN(C(=O)N3N=CC[C@H]3c3cc(F)cc(F)c3)C2)c(F)cn1` [compound 77, (S)-(5-(3,5-difluorophenyl)-4,5-dihydro-1H-pyrazol-1-yl)(3-((5-fluoro-2-(1-methyl-4-(morpholine-4-carbonyl)-1H-pyrazol-5-yl)pyridin-4-yl)oxy)azetidin-1-yl)methanone], the EC50 under setting [2] lay within 1000 to 10000 nM.

`CC(C)CNC(=O)c1cnn(C)c1-c1cc(OC2CN(C(=O)N3N=CC[C@H]3c3cc(F)cc(F)c3)C2)c(F)cn1` [compound 70, (S)-5-(4-((1-(5-(3,5-difluorophenyl)-4,5-dihydro-1H-pyrazole-1-carbonyl)azetidin-3-yl)oxy)-5-fluoropyridin-2-yl)-N-isobutyl-1-methyl-1H-pyrazole-4-carboxamide]: under setting [2], the EC50 was 0.1 to 100 nM.

As for `Cc1nn(-c2cc(OC3CN(C(=O)N4N=CC[C@H]4c4cc(F)cc(F)c4)C3)c(F)cn2)c(C)c1S(=O)(=O)NC1CCC1` [compound 235, (S)—N-cyclobutyl-1-(4-((1-(5-(3,5-difluorophenyl)-4,5-dihydro-1H-pyrazole-1-carbonyl)azetidin-3-yl)oxy)-5-fluoropyridin-2-yl)-3,5-dimethyl-1H-pyrazole-4-sulfonamide], the EC50 under setting [1] lay in the range of 0.1 to 100 nM.

With `Cc1cnn(C)c1-c1ccc(F)c(OC2CN(C(=O)N3N=CC[C@H]3c3cc(F)cc(F)c3)C2)c1` [compound 197, (S)-(5-(3,5-difluorophenyl)-4,5-dihydro-1H-pyrazol-1-yl)(3-(5-(1,4-dimethyl-1H-pyrazol-5-yl)-2-fluorophenoxy)azetidin-1-yl)methanone], the EC50 under setting [1] is 0.1 to 100 nM.

With `Cc1n[nH]cc1-c1cc(OC2CN(C(=O)N3N=CC[C@H]3c3cc(F)cc(F)c3)C2)c(F)cn1` [compound 85, (S)-(5-(3,5-difluorophenyl)-4,5-dihydro-1H-pyrazol-1-yl)(3-((5-fluoro-2-(3-methyl-1H-pyrazol-4-yl)pyridin-4-yl)oxy)azetidin-1-yl)methanone], under setting [2], the EC50 was 0.1 to 100 nM.

On to `Cc1nn(-c2cc(OC3CN(C(=O)N4N=CC[C@H]4c4cc(F)cc(F)c4)C3)c(F)cn2)c(C)c1C(=O)NC#N` [compound 253, (S)—N-cyano-1-(4-((1-(5-(3,5-difluorophenyl)-4,5-dihydro-1H-pyrazole-1-carbonyl)azetidin-3-yl)oxy)-5-fluoropyridin-2-yl)-3,5-dimethyl-1H-pyrazole-4-carboxamide], for which the EC50 under setting [1] fell in the range of 0.1 to 100 nM.

As to `Cc1nn(CC(=O)N(C)C)c(C)c1-c1ncc(F)c(OC2CN(C(=O)N3N=CC[C@H]3c3cc(F)cc(F)c3)C2)n1` [compound 100, (S)-2-(4-(4-((1-(5-(3,5-difluorophenyl)-4,5-dihydro-1H-pyrazole-1-carbonyl)azetidin-3-yl)oxy)-5-fluoropyrimidin-2-yl)-3,5-dimethyl-1H-pyrazol-1-yl)-N,N-dimethylacetamide], under setting [2], the EC50 lay within 0.1 to 100 nM.

On to `Cc1nn(-c2cc(OC3CN(C(=O)N4N=CC[C@H]4c4cc(F)cc(F)c4)C3)c(F)cn2)c(C)c1S(=O)(=O)NCCO` [compound 244, (S)-1-(4-((1-(5-(3,5-difluorophenyl)-4,5-dihydro-1H-pyrazole-1-carbonyl)azetidin-3-yl)oxy)-5-fluoropyridin-2-yl)-N-(2-hydroxyethyl)-3,5-dimethyl-1H-pyrazole-4-sulfonamide], for which, under setting [1], the EC50 was 0.1 to 100 nM.

For the molecule `COCC(=O)Nc1cnn(C)c1-c1cc(OC2CN(C(=O)N3N=CC[C@H]3c3cc(F)cc(F)c3)C2)c(F)cn1` [compound 121, (S)—N-(5-(4-((1-(5-(3,5-difluorophenyl)-4,5-dihydro-1H-pyrazole-1-carbonyl)azetidin-3-yl)oxy)-5-fluoropyridin-2-yl)-1-methyl-1H-pyrazol-4-yl)-2-methoxyacetamide], under setting [1], the concentration for a half-maximal effect (EC50) lay in the range of 0.1 to 100 nM.

Consider `Cc1nn(-c2cc(OC3CN(C(=O)N4N=CC[C@H]4c4cc(F)cc(F)c4)C3)c(F)cn2)c(C)c1[N+](=O)[O-]` [compound 108, (S)-(5-(3,5-difluorophenyl)-4,5-dihydro-1H-pyrazol-1-yl)(3-((2-(3,5-dimethyl-4-nitro-1H-pyrazol-1-yl)-5-fluoropyridin-4-yl)oxy)azetidin-1-yl)methanone], for which the 50% effective concentration (EC50) under setting [2] was in the range of 0.1 to 100 nM.

Consider `Cc1nc(C#N)sc1-c1cc(OC2CN(C(=O)N3N=CC[C@H]3c3cc(F)cc(F)c3)C2)c(F)cn1` [compound 188, (S)-5-(4-((1-(5-(3,5-difluorophenyl)-4,5-dihydro-1H-pyrazole-1-carbonyl)azetidin-3-yl)oxy)-5-fluoropyridin-2-yl)-4-methylthiazole-2-carbonitrile], for which the EC50 under setting [1] fell in the range of 0.1 to 100 nM.

For `COCCn1nc(C)c(-c2cc(OC3CN(C(=O)N4N=CC[C@H]4c4cc(F)cc(F)c4)C3)c(F)cn2)c1C` [compound 93, (S)-(5-(3,5-difluorophenyl)-4,5-dihydro-1H-pyrazol-1-yl)(3-((5-fluoro-2-(1-(2-methoxyethyl)-3,5-dimethyl-1H-pyrazol-4-yl)pyridin-4-yl)oxy)azetidin-1-yl)methanone], under setting [2], the 50% effective concentration (EC50) is 0.1 to 100 nM.

As for `CN(C)c1cnn(C)c1-c1cc(OC2CN(C(=O)N3N=CC[C@H]3c3cc(F)cc(F)c3)C2)c(F)cn1` [compound 55, (S)-(5-(3,5-difluorophenyl)-4,5-dihydro-1H-pyrazol-1-yl)(3-((2-(4-(dimethylamino)-1-methyl-1H-pyrazol-5-yl)-5-fluoropyridin-4-yl)oxy)azetidin-1-yl)methanone], the EC50 under setting [2] lay in the range of 0.1 to 100 nM.

Turning to `Cc1nccn1-c1ncc(F)c(OC2CN(C(=O)N3N=CC[C@H]3c3cc(F)cc(F)c3)C2)n1` [compound 105, (S)-(5-(3,5-difluorophenyl)-4,5-dihydro-1H-pyrazol-1-yl)(3-((5-fluoro-2-(2-methyl-1H-imidazol-1-yl)pyrimidin-4-yl)oxy)azetidin-1-yl)methanone], the EC50 under setting [2] was 0.1 to 100 nM.

`Cc1nn(-c2cc(OC3CN(C(=O)N4N=CC[C@H]4c4cc(F)cc(F)c4)C3)c(F)cn2)c(C)c1CO` [compound 148, (S)-(5-(3,5-difluorophenyl)-4,5-dihydro-1H-pyrazol-1-yl)(3-((5-fluoro-2-(4-(hydroxymethyl)-3,5-dimethyl-1H-pyrazol-1-yl)pyridin-4-yl)oxy)azetidin-1-yl)methanone]: the concentration giving a half-maximal response (EC50) under setting [1] lay within 0.1 to 100 nM.

With `Cc1nn(-c2cc(OC3CN(C(=O)N4N=CC[C@H]4c4cc(F)cc(F)c4)C3)c(F)cn2)c(C)c1CC(=O)O` [compound 278, (S)-2-(1-(4-((1-(5-(3,5-difluorophenyl)-4,5-dihydro-1H-pyrazole-1-carbonyl)azetidin-3-yl)oxy)-5-fluoropyridin-2-yl)-3,5-dimethyl-1H-pyrazol-4-yl)acetic acid], the EC50 under setting [1] fell in the range of 100 to 1000 nM.

`Cc1cn[nH]c1-c1cc(OC2CN(C(=O)N3N=CC[C@H]3c3cc(F)cc(F)c3)C2)c(F)cn1` [compound 126, (S)-(5-(3,5-difluorophenyl)-4,5-dihydro-1H-pyrazol-1-yl)(3-((5-fluoro-2-(4-methyl-1H-pyrazol-5-yl)pyridin-4-yl)oxy)azetidin-1-yl)methanone]: the EC50 under setting [1] fell in the range of 0.1 to 100 nM.
